# Source: patent US6156541A (priority 1998, dated 2000)
# Where a SMILES comes first, the peptide text is derived from it. [ ]: non-standard residue; d: D form. The star is where a group is joined. Sta = CC(C)C[C@H](N)[C@@H](O)CC(=O)O; Isovaleryl = CC(C)CC(=O)*
# System: Lay2 L chain, human monoclonal antibody light chain (Bence Jones protein, kappa IIc subgroup) from a multiple myeloma patient
# Assay type: biochemical
row,SMILES,Effect on Lay2-catalyzed gp120 hydrolysis
1,O=C(O)CN(CCN(CC(=O)O)CC(=O)O)CC(=O)O [EDTA],without effect
2,NC(=O)CI [iodoacetamide],without effect
3,CC(C)CC(=O)N[C@H](C(=O)N[C@H](C(=O)N[C@@H](CC(C)C)[C@@H](O)CC(=O)N[C@@H](C)C(=O)N[C@@H](CC(C)C)[C@@H](O)CC(=O)O)C(C)C)C(C)C [Pepstatin A] (Isovaleryl-VV[Sta]A[Sta]-OH),without effect
